{"source": "paper PMC6661771", "about": "“Indole hybridized diazenyl derivatives: synthesis, antimicrobial activity, cytotoxicity evaluation and docking studies” (BMC Chemistry, 2019)", "key": {"S. aureus [1]": {"test_system": "S. aureus", "test": "MIC by tube dilution method", "type": "cell-based", "details": "Staphylococcus aureus, 24 h at 37 °C, read-out: MIC"}, "B. subtilis [2]": {"test_system": "B. subtilis", "test": "MIC by tube dilution method", "type": "cell-based", "details": "Bacillus subtilis, 24 h at 37 °C, read-out: MIC"}, "A. fumigatus [3]": {"test_system": "A. fumigatus", "test": "Minimum fungicidal concentration (MFC)", "type": "cell-based", "details": "Aspergillus fumigatus, read-out: MBC/MFC"}, "MDA MB 231": {"test_system": "MDA MB 231", "test": "MTT cell proliferation assay", "type": "cell-based", "details": "Homo sapiens, MDA-MB-231, 48 h, MDA MB 231 breast cancer, 48 h of drug treatment, read-out: IC50", "procedure": "(§1) The cell lines used in study were initially procured from the National Centre for Cell Sciences (NCCS), Pune, India, and maintained in DMEM. The cell line was cultured in 25 cm^2 tissue culture flask with DMEM supplemented with 10% FBS, sodium bicarbonate, L-glutamine, and antibiotic solution containing: streptomycin (100 μg/ml), penicillin (100 U/ml). Cultured cell line was kept at 37 °C in a humidified 5% CO2 incubator (VWR, USA).\n(§2) The compounds found to have good antimicrobial potential were then screened for their cytotoxicity using MTT […]) assay. 1 × 10^4 cells/well were seeded in 100 µl DMEM/MEM, supplemented with 10% FBS in each well of 96-well microculture plates and incubated for 24 h at 37 °C in a CO2 incubator. After incubation, all the prepared/synthesized compounds were added to the cells at 10, 25, 50 and 100 µg concentrations for 48 h. After 48 h of drug treatment, 10 µl MTT (5 mg/ml) was added to each well and the plates were further incubated for 4 h. Then the supernatant from each well was carefully removed, formazan crystals were dissolved in 100 µl of DMSO and absorbance at 570 nm wavelength was recorded on an ELISA reader. The IC50 value was calculated using the linear regression equation i.e. Y = Mx + C. Here, Y = 50, M and C values were derived from the viability graph. The assay was performed in triplicate."}, "K562": {"test_system": "K562", "test": "MTT cell proliferation assay", "type": "cell-based", "details": "Homo sapiens, K562 leukemia, 48 h of drug treatment", "procedure": "as §1, §2"}, "HCT 116": {"test_system": "HCT 116", "test": "MTT cell proliferation assay", "type": "cell-based", "details": "Homo sapiens, HCT-116, 48 h, HCT 116 colon cancer, 48 h of drug treatment", "procedure": "as §1, §2"}, "S. enterica [4]": {"test_system": "S. enterica", "test": "MIC by tube dilution method", "type": "cell-based", "details": "Salmonella enterica, 24 h, 24 h at 37 °C, read-out: MIC"}, "HEK-293": {"test_system": "HEK-293", "test": "MTT cell proliferation assay, normal cells", "type": "cell-based", "details": "Homo sapiens, HEK293, HEK-293 normal cells, 48 h of drug treatment", "procedure": "as §1, §2"}, "S. aureus [5]": {"test_system": "S. aureus", "test": "Minimum bactericidal concentration (MBC)", "type": "cell-based", "details": "Staphylococcus aureus"}, "A. fumigatus [6]": {"test_system": "A. fumigatus", "test": "MIC by tube dilution method", "type": "cell-based", "details": "Aspergillus fumigatus, 168 h, 7 days at 25 °C, read-out: MIC"}, "E. coli [7]": {"test_system": "E. coli", "test": "Minimum bactericidal concentration (MBC)", "type": "cell-based", "details": "Escherichia coli"}, "B. subtilis [8]": {"test_system": "B. subtilis", "test": "Minimum bactericidal concentration (MBC)", "type": "cell-based", "details": "Bacillus subtilis"}, "K. pneumonia [9]": {"test_system": "K. pneumonia", "test": "MIC by tube dilution method", "type": "cell-based", "details": "Klebsiella pneumoniae, 24 h, 24 h at 37 °C, read-out: MIC"}, "S. enterica [10]": {"test_system": "S. enterica", "test": "Minimum bactericidal concentration (MBC)", "type": "cell-based", "details": "Salmonella enterica; S. enterica; MBC; read-out: MBC/MFC", "procedure": "After MIC assessment, the indole derivatives (DS1–DS21), were additionally evaluated for MBC and MFC values. […] The 10–15 ml of nutrient agar and Sabouraud dextrose agar was added to the petri plates for bacterial and fungal samples respectively with gentle shaking of plates in order to mix the culture throughout the media. Allowed the media to solidify. The petri plates were then incubated for the predefined time and temperature as referenced already for bacterial and fungal cultures respectively. The plates were then investigated visually for the development of microbial growth. The MBC and MFC were stated as the minimum concentration of the compounds in aliquots showing no visual growth after incubation."}, "A. niger [11]": {"test_system": "A. niger", "test": "MIC by tube dilution method", "type": "cell-based", "details": "Aspergillus niger, 168 h, 7 days at 25 °C, read-out: MIC"}, "E. coli [12]": {"test_system": "E. coli", "test": "MIC by tube dilution method", "type": "cell-based", "details": "Escherichia coli, 24 h, 24 h at 37 °C, read-out: MIC"}, "A. niger [13]": {"test_system": "A. niger", "test": "Minimum fungicidal concentration (MFC)", "type": "cell-based", "details": "Aspergillus niger, read-out: MBC/MFC"}, "K. pneumonia [14]": {"test_system": "K. pneumonia", "test": "Minimum bactericidal concentration (MBC)", "type": "cell-based", "details": "Klebsiella pneumoniae"}}}
{"smiles": "C/C(=N/c1cc(Cl)ccc1Cl)c1ccc(/N=N\\c2c[nH]c3ccc([N+](=O)[O-])cc23)cc1", "note": "[DS-10, (Z)-2,5-Dichloro-N-(1-(4-((Z)-(5-nitro-1H-indol-3-yl)diazenyl)phenyl)ethylidene)aniline]", "values": [{"measurement": "MIC", "setting": "S. aureus [1]", "value": 62.5, "unit": "µg/mL"}, {"measurement": "MIC", "setting": "B. subtilis [2]", "value": 62.5, "unit": "µg/mL"}, {"measurement": "MFC", "setting": "A. fumigatus [3]", "value": 125, "unit": "µg/mL"}, {"measurement": "melting point", "value": "210 to 215", "unit": "°C"}, {"measurement": "IC50", "setting": "MDA MB 231", "value": "130 ± 3.51", "unit": "µg/mL"}, {"measurement": "IC50", "setting": "K562", "value": "199 ± 3.13", "unit": "µg/mL"}, {"measurement": "IC50", "setting": "HCT 116", "value": "204.9 ± 1.62", "unit": "µg/mL"}, {"measurement": "MIC", "setting": "S. enterica [4]", "value": 31.2, "unit": "µg/mL"}, {"measurement": "IC50", "setting": "HEK-293", "value": "274 ± 4.58", "unit": "µg/mL"}, {"measurement": "MBC", "setting": "S. aureus [5]", "value": 125, "unit": "µg/mL"}, {"measurement": "MIC", "setting": "A. fumigatus [6]", "value": 125, "unit": "µg/mL"}, {"measurement": "MBC", "setting": "E. coli [7]", "value": 31.2, "unit": "µg/mL"}, {"measurement": "MBC", "setting": "B. subtilis [8]", "value": 125, "unit": "µg/mL"}, {"measurement": "MIC", "setting": "K. pneumonia [9]", "value": 3.9, "unit": "µg/mL"}, {"measurement": "MBC", "setting": "S. enterica [10]", "value": 62.5, "unit": "µg/mL"}, {"measurement": "MIC", "setting": "A. niger [11]", "value": 62.5, "unit": "µg/mL"}, {"measurement": "MIC", "setting": "E. coli [12]", "value": 1.95, "unit": "µg/mL"}, {"measurement": "MFC", "setting": "A. niger [13]", "value": 125, "unit": "µg/mL"}]}
{"smiles": "C/C(=N/c1nnc(-c2ccc([N+](=O)[O-])cc2Cl)s1)c1ccc(/N=N\\c2c[nH]c3ccc([N+](=O)[O-])cc23)cc1", "note": "[DS-3, (Z)-5-(2-Chloro-4-nitrophenyl)-N-(1-(4-((Z)-(5-nitro-1H-indol-3-yl)diazenyl)phenyl)ethylidene)-1,3,4-thiadiazol-2-amine]", "values": [{"measurement": "MIC", "setting": "S. aureus [1]", "value": 62.5, "unit": "µg/mL"}, {"measurement": "MIC", "setting": "B. subtilis [2]", "value": 31.2, "unit": "µg/mL"}, {"measurement": "MFC", "setting": "A. fumigatus [3]", "value": 62.5, "unit": "µg/mL"}, {"measurement": "melting point", "value": "155 to 160", "unit": "°C"}, {"measurement": "MBC", "setting": "K. pneumonia [14]", "value": 31.2, "unit": "µg/mL"}, {"measurement": "IC50", "setting": "MDA MB 231", "value": "46 ± 1.83", "unit": "µg/mL"}, {"measurement": "IC50", "setting": "K562", "value": "146 ± 2.11", "unit": "µg/mL"}, {"measurement": "IC50", "setting": "HCT 116", "value": "110 ± 2.55", "unit": "µg/mL"}, {"measurement": "MIC", "setting": "S. enterica [4]", "value": 31.2, "unit": "µg/mL"}, {"measurement": "IC50", "setting": "HEK-293", "value": "311.2 ± 1.76", "unit": "µg/mL"}, {"measurement": "MBC", "setting": "S. aureus [5]", "value": 62.5, "unit": "µg/mL"}, {"measurement": "MIC", "setting": "A. fumigatus [6]", "value": 15.6, "unit": "µg/mL"}, {"measurement": "MBC", "setting": "E. coli [7]", "value": 31.2, "unit": "µg/mL"}, {"measurement": "MBC", "setting": "B. subtilis [8]", "value": 62.5, "unit": "µg/mL"}, {"measurement": "MIC", "setting": "K. pneumonia [9]", "value": 1.95, "unit": "µg/mL"}, {"measurement": "MBC", "setting": "S. enterica [10]", "value": 31.2, "unit": "µg/mL"}, {"measurement": "MIC", "setting": "A. niger [11]", "value": 62.5, "unit": "µg/mL"}, {"measurement": "MIC", "setting": "E. coli [12]", "value": 3.9, "unit": "µg/mL"}, {"measurement": "MFC", "setting": "A. niger [13]", "value": 125, "unit": "µg/mL"}]}
